# Measurements as given in PubChem BioAssay AID1918947 (Molecular Pharmacology Branch, DTP, NCI, 2023).
# Several values for one entry are separate records, joined by “and”; a condition that tells them apart may be missing. Identical values can stand only once.
# Tested on: A498 complex spheroid viability
# Assay: Anticancer human tumor A498 cell line growth inhibition;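 note: spheroids exposed to agents for seven days before readout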;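 for viability, T/C: 100% = DMSO vehicle-treated spheroids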
# Conditions: for viability, T/C: stronger effect = lower value
# Source text: Multicellular complex tumor spheroid response to LSD1 Inhibitor Iadademstat in combination with a variety of drugs and investigational agents in selected tumor cell lines
# The current study was undertaken to assess response to LSD1 inhibitors in combination with standard-of-care drugs and investigational agents in solid tumor complex spheroid models as well as in the K-562 leukemia. Complex spheroids include a stromal component modeled by human endothelial cells (HUVEC) and fibroblasts modeled by human mesenchymal stem cells (MSCs). The concentration ranges selected for each drug and investigational agent were based upon clinically achievable concentrations if the clinical Cmax of the agent was known.
# Compounds. The drugs and investigational agents used in this study are listed on Table 1. All of the agents used, including staurosporine (NSC755774) and gemcitabine (NSC613327), were obtained from the Developmental Therapeutics Program, NCI. FDA-approved anticancer drugs are available from the NCI at http://dtp.nci.nih.gov/branches/dscb/oncology_drugset_explanation.html. Drugs and investigational agents were >95% pure by proton nuclear magnetic resonance (NMR) and liquid chromatography/mass spectrometry (LC/MS). Stock solutions were prepared at 400x in DMSO, stored at -70 degrees C, and diluted in fresh medium prior to their use. The final concentration of DMSO in cell culture wells never exceeded 0.25% (v/v). The FDA-approved anticancer drug set is available from the Developmental Therapeutics Program at https://dtp.cancer.gov/organization/dscb/obtaining/available_plates.htm. All drugs and investigational agents were tested over a range starting from a high concentration at or near the clinical Cmax and decreasing in half-log increments. If the clinical Cmax for an agent had not been determined, the highest concentration tested was 10 microM.
# Cell Lines. The patient-derived cancer cell (PDC) lines: 292921-168-R-J2-PDC, K24384-001-R-PDC, and 521955-158-R2-J5-PDC pancreatic carcinomas, 556581-035-R-J1 ovarian carcinoma, 324938-238-R-J1-PDC, 855422-203-R-J1-PDC and 883617-216-R-J1-PDC urothelial bladder carcinomas, 743489-274-T-PDC renal cell carcinoma, 138582-R-J1 Merkel cell tumor, K60290-347-R-J1 and K57222-313-R-J1-PDC glioblastomas, 653999-131-R-J2-PDC, LG0703-F948-PDC, and 349418-098-R-PDC non-small cell lung carcinomas, 885512-296-R-J2-PDC, 171881-019-R-J1-PDC breast carcinomas and 186277-243-T-J2-PDC and 233499-124-R-J2-PDC colon carcinomas were obtained from the NCI Patient-Derived Models Repository (PDMR, https://pdmr.cancer.gov). The established cell lines NCI/ADR-RES (RRID:CVCL_14520 and OVCAR-5 (RRID:CVCL_1628) ovarian carcinomas, 786-O (RRID:CVCL_1051) and A498 (RRID:CVCL_A498) renal cell carcinoma, NCI-H211 (ATCC, cat. CRL-5824; RRID:CVCL_1529), NCI-H196 (ATCC, cat. CRL-5823, RRID:CVCL_1509), SW 1271 (ATCC, cat. CRL-2177, RRID:CVCL_1716) and NCI-H1876 (ATCC, cat. CRL-5902, RRID:CVCL_1503) small cell lung carcinomas, MDA-MB-231 (RRID:CVCL_0062) and MDA-MB-468 (RRID:CVCL_0419)breast carcinomas (10-12). Pooled donor human umbilical vein endothelial cells (HUVEC, Lonza, cat. CC-2519) and human mesenchymal stem cells (hMSC, Lonza, cat. PT-2501) were purchased from Lonza (Walkersville, MD).
# Cell Culture. All cells were maintained in an incubator at 37 degrees C and 5% CO2 with 95% humidity. The PDC lines were cultured according to standard operating procedures established by the NCI PDMR (https://pdmr.cancer.gov). Briefly all PDCs were thawed and cultured in Matrigel-coated flasks prepared with a working solution of 1X Ham's F-12 nutrient mix, without supplementation (Invitrogen, Waltham, MA, cat. 11765054), 100 U/mL penicillin-streptomycin (Invitrogen, cat. 15140122), and 2.5% Matrigel (Corning Inc., Corning, NY, cat. 354248) for the first three passages. […]
# [1] = curve of first compound, second compound 0.1 µM
# [2] = curve of first compound, second compound 0.316 µM
# [3] = curve of first compound, second compound 1 µM
# [4] = curve of first compound, second compound 3.16 µM
# [5] = curve of first compound, second compound 10 µM
# [6] = second compound 0.1 µM, first compound 0.000316 µM
# [7] = second compound 0.1 µM, first compound 0.001 µM
# [8] = second compound 0.1 µM, first compound 0.00316 µM
# [9] = second compound 0.1 µM, first compound 0.01 µM
# [10] = second compound 0.1 µM, first compound 0.0316 µM
# [11] = second compound 0.1 µM, first compound 0.1 µM
# [12] = second compound 0.316 µM, first compound 0.000316 µM
# [13] = second compound 0.316 µM, first compound 0.001 µM
# [14] = second compound 0.316 µM, first compound 0.00316 µM
# [15] = second compound 0.316 µM, first compound 0.01 µM
# [16] = second compound 0.316 µM, first compound 0.0316 µM
# [17] = second compound 0.316 µM, first compound 0.1 µM
# [18] = second compound 1 µM, first compound 0.000316 µM
# [19] = second compound 1 µM, first compound 0.001 µM
# [20] = second compound 1 µM, first compound 0.00316 µM
# [21] = second compound 1 µM, first compound 0.01 µM
# [22] = second compound 1 µM, first compound 0.0316 µM
# [23] = second compound 1 µM, first compound 0.1 µM
# [24] = second compound 3.16 µM, first compound 0.000316 µM
# [25] = second compound 3.16 µM, first compound 0.001 µM
# [26] = second compound 3.16 µM, first compound 0.00316 µM
# [27] = second compound 3.16 µM, first compound 0.01 µM
# [28] = second compound 3.16 µM, first compound 0.0316 µM
# [29] = second compound 3.16 µM, first compound 0.1 µM
# [30] = second compound 10 µM, first compound 0.000316 µM
# [31] = second compound 10 µM, first compound 0.001 µM
# [32] = second compound 10 µM, first compound 0.00316 µM
# [33] = second compound 10 µM, first compound 0.01 µM
# [34] = second compound 10 µM, first compound 0.0316 µM
# [35] = second compound 10 µM, first compound 0.1 µM
smiles,measurement,setting,value
CC(C)CC(NC(=O)C(Cc1ccccc1)NC(=O)c1cnccn1)B(O)O (configuration not stated) + NC1CCC(NC2CC2c2ccccc2)CC1,IC50,[1],0.966 nM
same,IC50,[2],0.876 nM
same,IC50,[3],0.765 nM
same,IC50,[4],0.635 nM
same,IC50,[5],0.527 nM
same,"viability, T/C",[6],82.1%
same,"viability, T/C",[7],49%
same,"viability, T/C",[8],3.94%
same,"viability, T/C",[9],1.24%
same,"viability, T/C",[10],0.46%
same,"viability, T/C",[11],0.48%
same,"viability, T/C",[12],90.5%
same,"viability, T/C",[13],44.7%
same,"viability, T/C",[14],3.08%
same,"viability, T/C",[15],1.09%
same,"viability, T/C",[16],0.41%
same,"viability, T/C",[17],0.97%
same,"viability, T/C",[18],84.5%
same,"viability, T/C",[19],39.5%
same,"viability, T/C",[20],2.52%
same,"viability, T/C",[21],0.84%
same,"viability, T/C",[22],1.13%
same,"viability, T/C",[23],0.61%
same,"viability, T/C",[24],78.5%
same,"viability, T/C",[25],31.5%
same,"viability, T/C",[26],1.91%
same,"viability, T/C",[27],0.54%
same,"viability, T/C",[28],0.31%
same,"viability, T/C",[29],0.35%
same,"viability, T/C",[30],67.6%
same,"viability, T/C",[31],28%
same,"viability, T/C",[32],1.67%
same,"viability, T/C",[33],0.4%
same,"viability, T/C",[34],0.26%
same,"viability, T/C",[35],0.41%
O=C(c1cc(Cc2n[nH]c(=O)c3ccccc23)ccc1F)N1CCN(C(=O)C2CC2)CC1,"viability, T/C",compound 0.0316 µM,99% and 102%
same,"viability, T/C",compound 0.1 µM,108% and 105%
same,"viability, T/C",compound 0.316 µM,96% and 101%
same,"viability, T/C",compound 1 µM,102% and 101%
same,"viability, T/C",compound 3.16 µM,103% and 93.4%
same,"viability, T/C",compound 10 µM,88.9% and 84.9%
same,IC50,curve of compound,> 10000 nM
CC1COCCN1c1cc(C2(S(C)(=N)=O)CC2)nc(-c2ccnc3[nH]ccc23)n1 (configuration not stated) + NC1CCC(NC2CC2c2ccccc2)CC1,IC50,[1],648 nM
same,IC50,[2],784 nM
same,IC50,[3],677 nM
same,IC50,[4],590 nM
same,IC50,[5],507 nM
same,"viability, T/C",[10],91.8%
same,"viability, T/C",[11],89%
same,"viability, T/C","second compound 0.1 µM, first compound 0.316 µM",70.7%
same,"viability, T/C","second compound 0.1 µM, first compound 1 µM",37.2%
same,"viability, T/C","second compound 0.1 µM, first compound 3.16 µM",18.2%
same,"viability, T/C","second compound 0.1 µM, first compound 10 µM",12%
same,"viability, T/C",[16],99%
same,"viability, T/C",[17],96.9%
same,"viability, T/C","second compound 0.316 µM, first compound 0.316 µM",82.8%
same,"viability, T/C","second compound 0.316 µM, first compound 1 µM",40.6%
same,"viability, T/C","second compound 0.316 µM, first compound 3.16 µM",18.9%
same,"viability, T/C","second compound 0.316 µM, first compound 10 µM",11.2%
same,"viability, T/C",[22],86.8%
same,"viability, T/C",[23],94%
same,"viability, T/C","second compound 1 µM, first compound 0.316 µM",72.4%
same,"viability, T/C","second compound 1 µM, first compound 1 µM",37.6%
same,"viability, T/C","second compound 1 µM, first compound 3.16 µM",19.6%
same,"viability, T/C","second compound 1 µM, first compound 10 µM",11.4%
same,"viability, T/C",[28],81.3%
same,"viability, T/C",[29],85.6%
same,"viability, T/C","second compound 3.16 µM, first compound 0.316 µM",69.7%
same,"viability, T/C","second compound 3.16 µM, first compound 1 µM",32.7%
same,"viability, T/C","second compound 3.16 µM, first compound 3.16 µM",17.6%
same,"viability, T/C","second compound 3.16 µM, first compound 10 µM",12.3%
same,"viability, T/C",[34],76.6%
same,"viability, T/C",[35],75.9%
same,"viability, T/C","second compound 10 µM, first compound 0.316 µM",60.8%
same,"viability, T/C","second compound 10 µM, first compound 1 µM",33.9%
same,"viability, T/C","second compound 10 µM, first compound 3.16 µM",17.9%
same,"viability, T/C","second compound 10 µM, first compound 10 µM",12.8%
CC[C@@]1(O)C(=O)OCc2c1cc1n(c2=O)Cc2cc3c(CN(C)C)c(O)ccc3nc2-1 + NC1CC1c1ccc(-c2cccc(O)c2)cc1,IC50,[1],42.5 nM
same,IC50,[2],43.7 nM
same,IC50,[3],37.8 nM
same,IC50,[4],30.2 nM
same,IC50,[5],26.1 nM
same,"viability, T/C",[6],105%
same,"viability, T/C",[7],106%
same,"viability, T/C",[8],79.1%
same,"viability, T/C",[9],76.4%
same,"viability, T/C",[10],60.6%
same,"viability, T/C",[11],29.8%
same,"viability, T/C",[12],110%
same,"viability, T/C",[13],103%
same,"viability, T/C",[14],82.2%
same,"viability, T/C",[15],73.1%
same,"viability, T/C",[16],59.6%
same,"viability, T/C",[17],33.8%
same,"viability, T/C",[18],102%
same,"viability, T/C",[19],103%
same,"viability, T/C",[20],86.5%
same,"viability, T/C",[21],69.4%
same,"viability, T/C",[22],55.8%
same,"viability, T/C",[23],32.9%
same,"viability, T/C",[24],104%
same,"viability, T/C",[25],95.4%
same,"viability, T/C",[26],74.6%
same,"viability, T/C",[27],60.5%
same,"viability, T/C",[28],58.8%
same,"viability, T/C",[29],29.5%
same,"viability, T/C",[30],103%
same,"viability, T/C",[31],92.4%
same,"viability, T/C",[32],75.8%
same,"viability, T/C",[33],65.5%
same,"viability, T/C",[34],49%
same,"viability, T/C",[35],27.7%
